Test results as given in US20250034135A1, “ANTI-APOPTOTIC PROTEIN BCL-2 INHIBITOR, PHARMACEUTICAL COMPOSITION AND USES THEREOF” (HANGZHOU HEALZEN THERAPEUTICS CO., LTD., priority 2021, published 2025).

What follows are molecules tested against BCL2 (Homo sapiens (Human), UniProt P10415) (assay: Molecular level activity test of anti-apoptotic protein BCL2 (HTRF, binding to Bim peptide)). Conditions: HTRF, binding of BCL2 to Bim peptide; read-out: BCL2 nM (inhibitory activity, IC50).
Outline: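 Signal comes from proximity of anti-His-labelled BCL2 and streptavidin-XL665-bound biotin-BIM peptide. Test compounds, added in 2% DMSO, were preincubated with protein and peptide for one hour; detection reagents then incubated four hours at room temperature before reading.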

BCL2, sequence (P10415 whole entry): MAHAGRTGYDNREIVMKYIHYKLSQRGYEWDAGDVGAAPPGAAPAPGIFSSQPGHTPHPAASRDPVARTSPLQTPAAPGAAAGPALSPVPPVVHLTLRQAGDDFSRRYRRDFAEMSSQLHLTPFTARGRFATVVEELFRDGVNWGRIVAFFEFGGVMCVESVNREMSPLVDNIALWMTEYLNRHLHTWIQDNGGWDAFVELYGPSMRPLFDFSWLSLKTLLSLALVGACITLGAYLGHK

IC50, < 10 nM:
CC(C)c1ccccc1[C@@H]1CCCN1C1CC2(CCN(c3cc(Oc4cnc5[nH]ccc5c4)c(C(=O)NS(=O)(=O)c4cc([N+](=O)[O-])c(NC[C@H]5CC[C@](C)(O)CC5)c5ocnc45)cc3F)CC2)C1 [compound 097, 2-((1H-pyrrolo[2,3-b]pyrid-5-yl)oxy)-5-fluoro-N-((7-((((1r, 4r)-4-hydroxy-4-methylcyclohexyl)methyl)amino)-6-nitrobenzo[d]oxazol-4-yl)sulfonyl)-4-(2-((S)-2-(2-isopropylphenyl)pyrrolidin-1-yl)-7-azaspiro[3.5]non-7-yl)benzamide]
CC(C)c1ccccc1C1CN(C2CCOCC2)CCN1C1CC2(CCN(c3ccc(C(=O)NS(=O)(=O)c4cc([N+](=O)[O-])c(NC[C@H]5CC[C@](C)(O)CC5)c5[nH]cnc45)c(Oc4cnc5[nH]ccc5c4)c3)CC2)C1 (stereo partly drawn) [compound 043, 2-((1H-pyrrolo[2,3-b]pyrid-5-yl)oxy)-N-((7-((((1r,4r)-4-hydroxy-4-methylcyclohexyl)methyl)amino)-6-nitro-1H-benzo[d]imidazol-4-yl)sulfonyl)-4-(2-(2-(2-isopropylphenyl)-4-(tetrahydro-2H-pyran-4-yl)piperazin-1-yl)-7-azaspiro[3.5]non-7-yl)benzamide]
CC(C)c1ccccc1[C@@H]1CCCN1C1CC2(CCN(c3cc(Oc4cnc5[nH]ccc5c4)c(C(=O)NS(=O)(=O)c4cc([N+](=O)[O-])c(NCC5CCC(N(C)C)CC5)c5[nH]cnc45)cc3F)CC2)C1 (stereo partly drawn) [compound 034, 2-((1H-pyrrolo[2,3-b]pyrid-5-yl)oxy)-N-((7-((((1S,4S)-4-(dimethylamino)cyclohexyl)methyl)amino)-6-nitro-1H-benzo[d]imidazol-4-yl)sulfonyl)-5-fluoro-4-(2-((S)-2-(2-isopropylphenyl)pyrrolidin-1-yl)-7-azaspiro[3.5]non-7-yl)benzamide]
COc1ccc(CN2CCN(C3CC4(CCN(c5cc(Oc6cnc7[nH]ccc7c6)c(C(=O)NS(=O)(=O)c6cc([N+](=O)[O-])c(NC[C@H]7CC[C@](C)(O)CC7)c7c6OCO7)cc5F)CC4)C3)[C@H](c3ccccc3C(C)C)C2)cc1 [compound 113, 2-((1H-pyrrolo[2,3-b]pyrid-5-yl)oxy)-5-fluoro-N-((7-((((1r, 4r)-4-hydroxy-4-methylcyclohexyl)methyl)amino)-6-nitrobenzo[d][1,3]dioxocyclopent-4-yl)sulfonyl)-4-(2-((R)-2-(2-isopropylphenyl)-4-(4-methoxybenzyl)piperazin-1-yl)-7-azaspiro[3.5]non-7-yl)benzamide]
COc1ccc(CN2CCN(C3CC4(CCN(c5ccc(C(=O)NS(=O)(=O)c6cc([N+](=O)[O-])c(NCC7(F)CCN(C(C)C)CC7)c7[nH]cnc67)c(Oc6cnc7[nH]cc(F)c7c6)c5)CC4)C3)C(c3ccccc3C(C)C)C2)cc1 (stereo not drawn) [compound 050]
COc1ccc(CN2CCN(C3CC4(CCN(c5ccc(C(=O)NS(=O)(=O)c6cc([N+](=O)[O-])c(NC[C@H]7CC[C@](C)(O)CC7)c7c6OC(F)(F)O7)c(Oc6cnc7[nH]ccc7c6)c5)CC4)C3)[C@H](c3ccccc3C(C)C)C2)cc1 [compound 165, 2-((1H-pyrrolo[2,3-b]pyrid-5-yl)oxy)-N-((2,2-difluoro-7-((((1r, 4r)-4-hydroxy-4-methylcyclohexyl)methyl)amino)-6-nitrobenzo[d][1,3]dioxocyclopent-4-yl)sulfonyl)-4-(2-((R)-2-(2-isopropylphenyl)-4-(4-methoxybenzyl)piperazin-1-yl)-7-azaspiro[3.5]non-7-yl)benzamide]
CC(=O)N1CCC(F)(CNc2c([N+](=O)[O-])cc(S(=O)(=O)NC(=O)c3cnc(N4CCC5(CC4)CC(N4CCC[C@H]4c4ccccc4C(C)C)C5)cc3Oc3cnc4[nH]ccc4c3)c3nc[nH]c23)CC1 [compound 027, (S)-4-((1H-pyrrolo[2,3-b]pyrid-5-yl)oxy)-N-((7-(((1-acetyl-4-fluoropiperid-4-yl)methyl)amino)-6-nitro-1H-benzo[d]imidazol-4-yl)sulfonyl)-6-(2-(2-(2-isopropylphenyl)pyrrolidin-1-yl)-7-azaspiro[3.5]non-7-yl) nicotinamide]
CC(C)c1ccccc1[C@@H]1CN(Cc2ccc(N(C)C)cc2)CCN1C1CC2(CCN(c3cc(Oc4cnc5[nH]ccc5c4)c(C(=O)NS(=O)(=O)c4ccc(NCC5(F)CCOCC5)c([N+](=O)[O-])c4)cc3F)CC2)C1 [compound 198, (R)-2-((1H-pyrrolo[2,3-b]pyrid-5-yl)oxy)-4-(2-(4-(4-(dimethylamino)benzyl)-2-(2-isopropylphenyl)piperazin-1-yl)-7-azaspiro[3.5]non-7-yl)-5-fluoro-N-((4-(((4-fluorotetrahydro-2H-pyran-4-yl)methyl)amino)-3-nitrophenyl)sulfonyl)benzamide]
(S)-2-((1H-pyrrolo[2,3-b]pyrid-5-yl)oxy)-N-((7-(((4-fluoro-1-(oxocyclobut-3-yl)piperid-4-yl)methyl)amino)-6-nitro-1H-benzo[d]imidazol-4-yl)sulfonyl)-4-(2-(2-(2-isopropylphenyl)pyrrolidin-1-yl)-7-azaspiro[3.5]non-7-yl)benzamide [compound 003]
COc1ccc(CN2CCN(C3CC4(CCN(c5ccc(C(=O)NS(=O)(=O)c6cc([N+](=O)[O-])c(NC[C@H]7CC[C@](C)(O)CC7)c7c6OCO7)c(Oc6cnc7[nH]ccc7c6)c5)CC4)C3)[C@H](c3ccccc3C(C)C)C2)cn1 [compound 174, 2-((1H-pyrrolo[2,3-b]pyrid-5-yl)oxy)-N-((7-((((1r, 4r)-4-hydroxy-4-methylcyclohexyl)methyl)amino)-6-nitrobenzo[d][1,3]dioxocyclopent-4-yl)sulfonyl)-4-(2-((R)-2-(2-isopropylphenyl)-4-((6-methoxypyrid-3-yl)methyl)piperazin-1-yl)-7-azaspiro[3.5]non-7-yl)benzamide]
COc1ccc(CN2CCN(C3CC4(CCN(c5cc(Oc6cnc7[nH]ccc7c6)c(C(=O)NS(=O)(=O)c6cc([N+](=O)[O-])c(NC[C@H]7CC[C@](C)(O)CC7)c7[nH]cnc67)cc5F)CC4)C3)C(c3ccccc3C(C)C)C2)cc1 (stereo partly drawn) [compound 071, 2-((1H-pyrrolo[2,3-b]pyrid-5-yl)oxy)-5-fluoro-N-((7-((((1r,4r)-4-hydroxy-4-methylcyclohexyl)methyl)amino)-6-nitro-1H-benzo[d]imidazol-4-yl)sulfonyl)-4-(2-(2-(2-isopropylphenyl)-4-(4-methoxybenzyl)piperazin-1-yl)-7-azaspiro[3.5]non-7-yl)benzamide]
CC(C)c1ccccc1[C@@H]1CCCN1C1CC2(CCN(c3ccc(C(=O)NS(=O)(=O)c4cc([N+](=O)[O-])c(NCC5(F)CCOCC5)c5[nH]cnc45)c(N4CCOc5nc6[nH]ccc6cc54)c3)CC2)C1 [compound 087, (S)-2-(2,3-dihydropyrrolo[3′,2′:5,6]pyridino[2,3-b][1,4]oxazin-1 (6H)-yl)-N-((7-(((4-fluorotetrahydro-2H-pyran-4-yl)methyl)amino)-6-nitro-1H-benzo[d]imidazol-4-yl)sulfonyl)-4-(2-(2-(2-isopropylphenyl)pyrrolidin-1-yl)-7-azaspiro[3.5]non-7-yl)benzamide]
